According to patent US20140364453A1, “SALUBRINAL-DRIVEN ATTENUATION OF MALIGNANT PHENOTYPES OF 4T1 BREAST CANCER CELLS” (Indiana University Research and Technology Corporation, priority 2013, published 2014):

Experiments:
[1] = system: 4T1 mouse mammary tumor cells; assay: MTT assay, 4T1 cells; assay type: cell-based
Protocol: (§1) 4T1 mouse mammary tumor cells and MDA-MB-231 human breast cancer cells were cultured in DMEM containing 10% fetal bovine serum and antibiotics (50 units/ml penicillin, and 50 μg/ml streptomycin; Life Technologies, Grand Island, N.Y., USA). Cells were maintained at 37° C. and 5% CO2 in a humidified incubator. Responses to administration of 10-50 μM salubrinal or 5-50 μM guanabenz acetate (Tocris Bioscience, Ellisville, Mo., USA) were evaluated using assays for MTT, adhesion, invasion, and motility. Cells (5×10^2/well) were seeded in 96-well plates, and the reduction of MTT to formazan was evaluated by measuring the absorbance at 570 nm with a plate reader (EL800, BioTek, Winooski, Vt., USA).

[2] = system: cleaved caspase 3; assay: Western blot of cleaved caspase 3, 4T1 cells; assay type: cell-based, mouse; settings: absence and presence of 10% serum, 10-50 μM salubrinal, 5-50 μM guanabenz
Protocol: (§2) 4T1 mouse mammary tumor cells and MDA-MB-231 human breast cancer cells were cultured in DMEM containing 10% fetal bovine serum and antibiotics (50 units/ml penicillin, and 50 μg/ml streptomycin; Life Technologies, Grand Island, N.Y., USA). Cells were maintained at 37° C. and 5% CO2 in a humidified incubator. Responses to administration of 10-50 μM salubrinal or 5-50 μM guanabenz acetate (Tocris Bioscience, Ellisville, Mo., USA) were evaluated using assays for MTT, adhesion, invasion, and motility. Cells were lysed in a radioimmunoprecipitation assay (RIPA) buffer containing protease inhibitors (Santa Cruz Biotechnology, Santa Cruz, Calif., USA) and phosphatase inhibitors (Calbiochem, Billerica, Mass., USA). Isolated proteins were fractionated using 10-15% SDS gels and electro-transferred to Immobilon-P membranes (Millipore, Billerica, Mass., USA). The membrane was incubated for 1 h with primary antibodies followed by 45 min incubation with goat anti-rabbit or anti-mouse IgG conjugated with horseradish peroxidase (Cell Signaling, Danvers, Mass., USA). […] Protein levels were assayed using a SuperSignal west femto maximum sensitivity substrate (Thermo Scientific, Waltham, Mass., USA), and signal intensities were quantified with a luminescent image analyzer (LAS-3000, Fuji Film, Tokyo, Japan).

[3] = system: Rac1 GTPase; assay: FRET-based Rac1 activity imaging, 4T1 cells; assay type: cell-based, mouse; settings: 20 μM salubrinal
Protocol: (§3) To visualize Rac1 activity in response to salubrinal, FRET imaging was conducted using a cyan fluorescent protein (CFP)-yellow fluorescent protein (YFP) Rac1 biosensor. The filter sets (Semrock) were chosen for CFP excitation at 438±24 nm (center wavelength±bandwidth), CFP emission at 483±32 nm, and YFP emission at 542±27 nm. Time-lapse images were acquired at an interval of 5 min using a fluorescence microscope (Nikon, Tokyo, Japan). The level of Rac1 activity was determined by computing an emission ratio of YFP/CFP for individual cells using NIS-Elements software (Nikon).

[4] = system: 4T1 cells; assay: Two-dimensional wound healing scratch motility assay, 4T1 cells; assay type: cell-based, mouse; settings: for cell motility (scratch-wound assay): 4T1 cells, 20 or 50 μM, 24 h
Protocol: (§4) 4T1 mouse mammary tumor cells and MDA-MB-231 human breast cancer cells were cultured in DMEM containing 10% fetal bovine serum and antibiotics (50 units/ml penicillin, and 50 μg/ml streptomycin; Life Technologies, Grand Island, N.Y., USA). Cells were maintained at 37° C. and 5% CO2 in a humidified incubator. Responses to administration of 10-50 μM salubrinal or 5-50 μM guanabenz acetate (Tocris Bioscience, Ellisville, Mo., USA) were evaluated using assays for MTT, adhesion, invasion, and motility. To evaluate 2-dimensional motility, a wound healing scratch motility assay was carried out. In brief, cells were plated in 12-well plates or 6-cm dishes (Falcon) and on the next day, scratching was performed using a plastic tip. The areas newly occupied with cells in the scratched zone were determined every 3 h up to 24 h using images obtained by a microscope, which were scanned with Adobe Photoshop (CS2, Adobe Systems, San Jose, Calif., USA) and quantified with Image J.

[5] = system: Rac1 GTPase; assay: FRET-based Rac1 activity imaging, MDA-MB-231 cells; assay type: cell-based, human; settings: 20 μM salubrinal
Protocol: as §3

[6] = system: MDA-MB-231 human breast cancer cells; assay: In vitro invasion assay, MDA-MB-231 cells; assay type: cell-based; settings: 20 or 50 μM salubrinal, 24 h, absence of serum
Protocol: (§5) 4T1 mouse mammary tumor cells and MDA-MB-231 human breast cancer cells were cultured in DMEM containing 10% fetal bovine serum and antibiotics (50 units/ml penicillin, and 50 μg/ml streptomycin; Life Technologies, Grand Island, N.Y., USA). Cells were maintained at 37° C. and 5% CO2 in a humidified incubator. Responses to administration of 10-50 μM salubrinal or 5-50 μM guanabenz acetate (Tocris Bioscience, Ellisville, Mo., USA) were evaluated using assays for MTT, adhesion, invasion, and motility. An invasion assay was performed with a Boyden chamber with minor modifications of the usual procedure. In brief, Matrigel (BD Biosciences) was diluted with ice-cold PBS (100 μg/ml). Six-hundred μl of Matrigel was added to each filter (polyethylene terephthalate membrane, 8-μm pore size, 23.1 mm in diameter, Falcon) and left to polymerize overnight. Prior to assembling the chamber unit, the lower chamber (6-well plate, Falcon) was filled with culture medium consisting of salubrinal or guanabenz. Cells (1˜4×10^5/well) were added to the culture medium with salubrinal or guanabenz in the upper chamber and incubated for 24 h. The cells on the filter surface were stained with Giemsa (Sigma-Aldrich) and the number of cells was counted under the microscope.

[7] = system: MDA-MB-231 human breast cancer cells; assay: MTT assay, MDA-MB-231 cells; assay type: cell-based; settings: 20 or 50 μM salubrinal
Protocol: as §1

[8] = system: 4T1 cells; assay: In vitro invasion assay (Boyden chamber, Matrigel), 4T1 cells; assay type: cell-based, mouse; settings: for number of cells invaded through the filter coated with Matrigel: 4T1 cells, 24 h, regardless of serum, 10-50 μM salubrinal, 5-50 μM guanabenz
Protocol: as §5

[9] = system: cleaved caspase 3; assay: Western blot of cleaved caspase 3, MDA-MB-231 cells; assay type: cell-based, human; settings: 20 or 50 μM salubrinal, absence of serum
Protocol: as §2

[10] = system: MDA-MB-231 human breast cancer cells; assay: Scratch motility assay, MDA-MB-231 cells; assay type: cell-based; settings: 20 or 50 μM salubrinal, 24 h, 10% serum
Protocol: as §4

[11] = system: 4T1 mouse mammary tumor cells; assay: In vivo tumor growth, BALB/c mice injected with 4T1 cells; settings: 4T1 cells s.c., 25 μg salubrinal s.c. daily, day 20, mean±S.D., N=18
Protocol: Experimental procedures were approved by the Indiana University Animal Care and Use Committee and were in compliance with the Guiding Principles in the Care and Use of Animals endorsed by the American Physiological Society. Five mice were housed per cage, and fed with mouse chow and water ad libitum. Thirty-five BALB/c female mice (6 weeks, Harlan Laboratories) were used. Mice received subcutaneous injection of 4T1 mouse mammary tumor cells (10^6 cells in 100 μl PBS) to the abdomen on day 1. Twenty-five μg of salubrinal was administered subcutaneously into the area of cell injection every day, while the control animals received a vehicle. The animals were sacrificed on day 20, and the volume and weight of tumors were determined. The tumor volume was calculated as (long diameter)×(short diameter)^2/2.

[12] = system: primary mouse bone marrow cells; assay: Osteoclastogenesis in primary mouse bone marrow cells; assay type: cell-based; settings: 10 or 20 μM; 3 days
[13] = system: NFATc1; assay: NFATc1 protein expression in primary mouse bone marrow cells; assay type: cell-based; settings: 10 or 20 μM; 2 days
[14] = system: NFATc1, TRAP, OSCAR, c-fos, MMP9, and cathepsin K; assay: Relative mRNA abundance in primary mouse bone marrow cells; assay type: cell-based; settings: 10 μM; 24 h
[15] = system: 4T1 cells; assay: Cell adhesion assay, 4T1 cells; assay type: cell-based, mouse; settings: surfaces coated with poly-L-lysine, type I collagen, fibronectin, laminin; 30 min and 3 h
Protocol: 4T1 mouse mammary tumor cells and MDA-MB-231 human breast cancer cells were cultured in DMEM containing 10% fetal bovine serum and antibiotics (50 units/ml penicillin, and 50 μg/ml streptomycin; Life Technologies, Grand Island, N.Y., USA). Cells were maintained at 37° C. and 5% CO2 in a humidified incubator. Responses to administration of 10-50 μM salubrinal or 5-50 μM guanabenz acetate (Tocris Bioscience, Ellisville, Mo., USA) were evaluated using assays for MTT, adhesion, invasion, and motility. Ninety-six well plates were coated with poly-L-lysine, fibronectin, laminin (Sigma-Aldrich, St. Louis, Mo., USA), or type I collagen (BD Biosciences, Bedford, Mass., USA) for 2 h. The plates were then incubated with non-fat dry milk, followed by washing with PBS and serum-free culture medium. Cells (1×10^4/well) were added on the plate, and after 30 min and 3 h the attached cells were stained with 0.04% crystal violet (Sigma-Aldrich) for 10 min at room temperature. The wells were washed with PBS, and DMSO was added. Absorbance at 550 nm was measured using the plate reader.

Row | Structure (SMILES) | level of cleaved caspase 3 [2] | cell motility (scratch-wound assay) [4] | number of cells invaded through the filter coated with Matrigel [8] | TRAP-positive multi-nucleated cells [12] | development of osteoclasts [12] | NFATc1 protein expression [13] | mRNA levels of NFATc1, TRAP, OSCAR, c-fos, MMP9, and cathepsin K [14] | cell adhesion (absorbance reading, number of adherent cells) [15] | further results
1 | O=C(/C=C/c1ccccc1)NC(NC(=S)Nc1cccc2cccnc12)C(Cl)(Cl)Cl (stereo not drawn) [salubrinal] | elevated | reduced in a dose dependent manner | significantly reduced | Reduction | Reduced development of osteoclasts | Suppression | reduced | did not significantly change | number of live 4T1 cells (MTT) ([1]; 10, 20, and 50 μM salubrinal): reduced in a dose dependent manner; salubrinal-driven reduction in Rac1 activity ([3]; 4T1 cells transfected with eIF2α siRNA): significantly suppressed; Rac1 activity (emission ratio of YFP/CFP) ([3]; 4T1 cells): decreased; salubrinal-driven reduction in cell motility ([4]; 4T1 cells treated with eIF2α siRNA, 20 or 50 μM salubrinal): also suppressed; Rac1 activity (emission ratio of YFP/CFP) [5]: decreased; cell invasion [6]: Reduction in cell invasion; proliferation (relative cell growth) [7]: inhibitory effects; salubrinal-driven reduction in cell invasion ([8]; 4T1 cells treated with eIF2α siRNA vs NC siRNA, 20 or 50 μM salubrinal): significantly suppressed; cell invasion ([8]; 4T1 control cells treated with NC siRNA, 20 or 50 μM salubrinal): reduced by salubrinal in a dose dependent manner; cleaved caspase 3 [9]: Dose-dependent elevation; cell motility [10]: Reduction in cell motility; tumor volume [11]: 384.5±248.1 mm^3; tumor weight [11]: 0.32 ± 0.24 g
2 | N=C(N)N/N=C/c1c(Cl)cccc1Cl [guanabenz] | elevated | reduced in a dose dependent manner | significantly reduced | Reduction | Reduced development of osteoclasts | Suppression | reduced | did not significantly change | number of live 4T1 cells (MTT) ([1]; 50 μM guanabenz): decreased
